Laboratory results: US20120316234A1, “ANTHRAQUINONE -BASED COMPOUND, THE SYNTHESIS PROCESSES AND THE APPLICATION THEREOF” (NATIONAL DEFENSE MEDICAL CENTER, priority 2011, published 2012)

Key:
[1] = test system: telomerase (total cell lysates of lung cancer cell line H1299); experiment: Telomeric repeat amplification protocol (TRAP) telomerase activity analysis; type: biochemical; settings: 100 μM of compound; telomerase source H1299 cell lysate; gel electrophoresis, SYBER Green staining
Method: Telomerase elongated product (CX primer: [NT]) was replicated by PCR. […] Three different concentrations of compounds were performed.

melting point	SMILES	telomerase inhibition activity (TRAP analysis, FIG. 5) [1]
150 to 151 °C	COC(=O)CNCCC(=O)Nc1cccc2c1C(=O)c1cccc(NC(=O)CCNCC(=O)OC)c1C2=O [Compound 21]	have telomerase inhibition activity
323 to 324 °C	O=C(CCl)Nc1ccc2c(c1)C(=O)c1ccc(NC(=O)CCl)cc1C2=O	–
349 to 350 °C	O=C(CCl)Nc1cccc2c1C(=O)c1cccc(NC(=O)CCl)c1C2=O [Compound 11, 1,5-Bis(chloroacetamido)anthraquinone]	–
155 to 156 °C	COC(=O)CNCCC(=O)Nc1ccc(NC(=O)CCNCC(=O)OC)c2c1C(=O)c1ccccc1C2=O [Compound 10]	have telomerase inhibition activity
